Test results taken from patent US20100190225A1, “D-PSICOSE PRODUCTION METHOD BY D-PSICOSE EPIMERASE” (CJ CHEILJEDANG CORP., priority 2005, published 2010).
Read-outs that look alike come from different tables or passages of the source.

T1: psicose 3-epimerase (Agrobacterium fabrum, UniProt A9CH28)
T1 construct: made in house; host or cells: Escherichia coli BL21(DE3)
T1 sequence (A9CH28 with tags, fused parts or gaps): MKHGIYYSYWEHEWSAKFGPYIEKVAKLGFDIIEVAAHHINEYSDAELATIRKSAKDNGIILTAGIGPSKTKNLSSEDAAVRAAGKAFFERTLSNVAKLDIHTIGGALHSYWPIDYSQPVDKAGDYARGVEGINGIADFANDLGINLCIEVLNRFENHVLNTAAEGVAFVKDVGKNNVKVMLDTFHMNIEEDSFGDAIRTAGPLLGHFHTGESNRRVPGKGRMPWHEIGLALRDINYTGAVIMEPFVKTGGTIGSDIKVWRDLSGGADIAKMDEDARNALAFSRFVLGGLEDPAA

B1: psicose 3-epimerase: enzyme (SEQ ID NO:1) from Agrobacterium tumefaciens ATCC33970 that converts D-fructose to D-psicose; monomer, metalloenzyme (protein, listed as Agrobacterium tumefaciens)
chain: T1 sequence (A9CH28 with tags, fused parts or gaps)

Tests used:
[1] = biological target: T1, psicose 3-epimerase; assay type: biochemical; settings: for Relative activity (%): 1 mM metal ion added or EDTA treatment, 1.0% D-fructose, pH 7.5, 50° C., 20 minutes, None = 100; for effect of metal ion on enzyme activity: 1 mM metal ion, in words
Method: The enzyme activity was measured by using D-fructose as a substrate. For the measurement of the enzyme activity, psicose 3-epimerase was allowed to react with D-fructose in a 50 mM PIPES buffer solution containing 1.0% of D-fructose, at pH 7.5 and at 50° C. for 20 minutes, and then the reaction solution was heated at 100° C. for 5 minutes to terminate the reaction. […] For the purpose of easy comparison of the enzyme activity, one unit of psicose 3-epimerase is defined as the amount of the psicose 3-epimerase needed to produce 1 mole of D-psicose per one minute at pH 7.5 and at 50° C.
In order to investigate the effect of the addition of a metal ion, the enzyme activity of the psicose 3-epimerase was measured after treating the psicose 3-epimerase with EDTA, or after adding 1 mM each of the metal ions indicated in Table 1 below, to the psicose 3-epimerase. Reaction of the psicose 3-epimerase was performed in a 50 mM PIPES buffer solution containing 0.04 units/ml of the psicose 3-epimerase and 1.0% by weight of D-fructose at pH 7.5 and at 50° C. for 20 minutes, and then the reaction solution was heated at 100° C. for 5 minutes to terminate the reaction. Then, the enzyme activity of the psicose 3-epimerase was measured.

[2] = biological target: T1, psicose 3-epimerase; assay: Substrate specificity of psicose 3-epimerase; assay type: biochemical; settings: for Relative activity (%) No metal ion added / Relative activity (%) Mn^2+ added: 10 mM monosaccharide as substrate, pH 7.5, 50° C., 20 minutes
Method: In the current Experimental Example, MALDI-TOF-MS was used for the measurement of the molecular weight of psicose 3-epimerase, and cinnamic acid was used as a matrix. The enzyme activity was measured by using D-fructose as a substrate. For the measurement of the enzyme activity, psicose 3-epimerase was allowed to react with D-fructose in a 50 mM PIPES buffer solution containing 1.0% of D-fructose, at pH 7.5 and at 50° C. for 20 minutes, and then the reaction solution was heated at 100° C. for 5 minutes to terminate the reaction. The PIPES buffer solution containing D-fructose was prepared by dissolving D-fructose in PIPES buffer solution at pH 7 to 8 to a concentration of 60 to 70% by weight, and the PIPES buffer solution containing D-fructose was continuously added to a bioreactor maintained at 40 to 60° C. For the purpose of easy comparison of the enzyme activity, one unit of psicose 3-epimerase is defined as the amount of the psicose 3-epimerase needed to produce […] of D-psicose per one minute at pH 7.5 and at 50° C.
The concentrations of D-fructose, D-psicose, D-sorbose, D-tagatose, D-xylulose and D-ribulose were measured using a high pressure liquid chromatography system with a BP-100 calcium ion […] column and an RI detector. The column was conditioned to allow a flow of distilled water at a rate of 0.5 ml/min at 80° C.
Reaction of the psicose 3-epimerase was performed in a 50 mM PIPES buffer solution containing 0.04 units/ml of the psicose 3-epimerase and 10 mM each individually of the monosaccharides indicated in Table 2 below, at pH 7.5 and at 50° C. for 20 minutes, and then each of the reaction solutions were heated at 100° C. for 5 minutes to terminate the reaction. Then, the enzyme activity of the psicose 3-epimerase of each reaction solution was measured.

[3] = system: lipogenic enzymes; settings: dietary, in words; cited from earlier work
[4] = in words; cited from earlier work
[5] = D-psicose production by free psicose 3-epimerase; assay type: biochemical; settings: 700 g/L D-fructose; for D-Psicose: 14 units/ml, 1 mM Mn^2+, pH 7.0, 60° C.
Method: In order to produce D-psicose at high concentrations, the reaction was performed in a 50 mM PIPES buffer solution containing 14 units of psicose 3-epimerase/ml, 1 mM of Mn^2+ ions, and 700 g/L of D-fructose, at pH 7.0 and at 60° C. for various reaction times. Then, the reaction was terminated by heating the reaction solution at 100° C. for 5 minutes, and the enzyme activity was measured.

[6] = Equilibrium between D-psicose and D-fructose achieved by psicose 3-epimerase; assay type: biochemical
Method: In Example 6, the reaction of the psicose 3-epimerase was performed in a 50 mM PIPES buffer solution containing 0.04 units of psicose 3-epimerase/ml, 1 mM of Mn^2+ ions, and 0.1% of D-psicose and D-fructose together, at pH 7.0 and at temperatures ranging from 30° C. to 60° C. for 24 hours to allow the reaction to proceed sufficiently, in order to determine the equilibrium between D-psicose and D-fructose. Then, the reactions were terminated by heating the reaction solution at 100° C. for 5 minutes, and the enzyme activity was measured.
As a result, the reaction was started with 5 initial ratios of D-psicose to D-fructose, of 0:100, 25:75, 50:50, 75:25, and 100:0, and the final ratios of D-psicose to D-fructose were determined after 24 hours of the reaction, as shown in FIG. 2. Referring to FIG. 2, the ratio of D-psicose to D-fructose was 32:68 at 30° C., while the same ratio was 37:63 at 60° C.

[7] = Activity of psicose 3-epimerase according to pH and temperature changes; assay type: biochemical
Method: In Example 5, the psicose 3-epimerase was reacted with D-fructose at various pH values and temperatures, and the enzyme activities obtained at the various pH values and temperatures were compared. In order to investigate the pH effect, the reaction of the psicose 3-epimerase was performed in a 50 mM PIPES buffer solution containing 0.04 units of psicose 3-epimerase/ml and 1.0% of D-fructose at pH values ranging from 6.5 to 7.5, and the same reaction was performed in a 50 mM EPPS buffer solution containing 0.04 units of psicose 3-epimerase/ml and 1.0% of D-fructose at pH values ranging from 7.5 to 8.5. Here, the respective reactions were performed at 50° C. when metal ions were not added, and at 60° C. when Mn ions were added, respectively for 20 minutes. Then, the reactions were terminated by heating the reaction solutions at 100° C. for 5 minutes, and the enzyme activities were measured. The results are illustrated in FIG. 1A.
In order to investigate the temperature effect, the reaction was performed in a 50 mM PIPES buffer solution containing 0.04 units of psicose 3-epimerase/ml and 1.0% of D-fructose at temperatures ranging from 30° C. to 70° C. for 20 minutes, at pH 7.5 when metal ions were not added, and at pH 7.0 when Mn ions were added. The reactions were terminated by heating the reaction solution at 100° C. for 5 minutes, and the enzyme activities were measured. The results are illustrated in FIG. 1B.

Row | Molecule | Relative activity (%) [1] | Relative activity (%) No metal ion added [2] | Relative activity (%) Mn^2+ added [2] | other results
1 | [Al+3] [Al^3+] | 100% | – | – | –
2 | [Ba+2] [Ba^2+] | 95.6% | – | – | –
3 | [Ca+2] [Ca^2+] | 64.4% | – | – | –
4 | [Co+2] [Co^2+] | 268% | – | – | effect of metal ion on enzyme activity [1]: enhanced the enzyme activity
5 | [Cu+2] [Cu^2+] | 2.2% | – | – | effect of metal ion on enzyme activity [1]: suppressed the enzyme activity
6 | O=C(CO)[C@@H](O)[C@H](O)[C@H](O)COP(=O)(O)O [D-Fructose-6-phosphate] | – | 0.0% | 0.0% | –
7 | O=C(CO)[C@@H](O)[C@H](O)[C@H](O)CO [D-Fructose] | – | 37.9% | 139% | –
8 | O=C(CO)[C@H](O)[C@H](O)[C@H](O)CO [D-Psicose] | – | 100% | 274% | effect on activity of lipogenic enzymes [3]: suppressing the activity of lipogenic enzymes; affinity of the psicose 3-epimerase for substrate ([2]; D-psicose compared with D-tagatose, in words): higher affinity; metabolism in the human body [4]: almost non-metabolizable
9 | O=C(CO)[C@H](O)[C@H](O)COP(=O)(O)O [D-Ribulose-5-phosphate] | – | 0.0% | 0.0% | –
10 | O=C(CO)[C@H](O)[C@H](O)CO [D-Ribulose] | – | 10.2% | 15.4% | –
11 | O=C(CO)[C@H](O)[C@@H](O)[C@H](O)CO [D-Sorbose] | – | 0.8% | 1.7% | –
12 | O=C(CO)[C@@H](O)[C@@H](O)[C@H](O)CO [D-Tagatose] | – | 65.5% | 92.3% | –
13 | O=C(CO)[C@@H](O)[C@H](O)CO [D-Xylulose] | – | 5.8% | 12.4% | –
14 | O=C(O)CN(CCN(CC(=O)O)CC(=O)O)CC(=O)O [EDTA] | 20.0% | – | – | –
15 | [Fe+3] [Fe^3+] | 121% | – | – | Relative activity (%) ([1]; listed as Fe^2+): 139%
16 | [Mg+2] [Mg^2+] | 100% | – | – | –
17 | [Mn+2] [Mn^2+] | 274% | – | – | effect of metal ion on enzyme activity [1]: enhanced the enzyme activity
18 | [Mo+2] [Mo^2+] | 93.3% | – | – | –
19 | [Zn+2] [Zn^2+] | 4.4% | – | – | effect of metal ion on enzyme activity [1]: suppressed the enzyme activity
20 | B1 | – | – | – | D-Psicose ([5]; reaction time 0 min): 0 g/L; D-Psicose ([5]; reaction time 10 min): 93 g/L; D-Psicose ([5]; reaction time 30 min): 155 g/L; D-Psicose ([5]; reaction time 60 min): 180 g/L; D-Psicose ([5]; reaction time 120 min): 211 g/L; D-psicose conversion yield ([5]; reaction time 120 minutes): 30.2%; D-Psicose ([5]; reaction time 180 min): 210 g/L; D-Psicose ([5]; reaction time 240 min): 210 g/L; D-Psicose ([5]; reaction time 300 min): 209 g/L; superiority to the yield achievable by conventional methods of producing D-psicose [6]: approximately 20%; optimal pH ([7]; Mn^2+ ions added): 7.0; optimal temperature ([7]; Mn^2+ ions added): 60 °C; optimal pH ([7]; metal ions not added): 7.5; optimal temperature ([7]; metal ions not added): 50 °C
